Experimental data as given in patent publication US20020025929A1, “METHOD OF BUILDING AND MAINTAINING BONE” (priority 1997, published 2002).
Marks after values point to notes of the source that are not given here.

Assays:
Assay type in all cases: in vivo, Sprague-Dawley rats
[1] = system: osteopenic ovariectomized rats; assay: Femoral neck strength (shear loading of proximal femur); design: Neck Fu (ultimate force): unit not given beside the values; conditions: OVX rats; for Neck Fu (ultimate force): proximal femora in shear, mean ± SEM
Method: Femoral neck strength was measured by mounting the proximal half of the femur vertically in a chuck and applying downward force at a rate of 1 mm/sec on the femoral head until the neck failed. The ultimate load was calculated as the maximum force sustained by the femoral neck. All tests were done at room temperature using the MTS system.
(§1) In a second study, virgin Sprague-Dawley rats were bilaterally ovariectomized (except for the sham-operated group), the ovariectomized animals randomized, and allowed to lose bone for one month prior to treatment in the manner described above. The animal groups, each containing 7-8 animals, included sham-operated animals (SHAM); bilaterally ovariectomized animals (OVX); bilaterally ovariectomized animals treated with 0.01, 0.3 or 1 mg/kg/day of compound 1a, respectively, for three months; bilaterally ovariectomized animals treated subcutaneously with PTH(1-34) at a dose of 10 μg/kg/day for three months; bilaterally ovariectomized animals treated subcutaneously with PTH(1-34) at a dose of 10 μg/kg/day and orally with compound 1a at a dose of 0.3 mg/kg/day, both compounds administered for three months; bilaterally ovariectomized animals treated subcutaneously with PTH(1-34) at a dose of 10 μg/kg/day for forty-five days followed by gavage administration of vehicle for forty-five days; bilaterally ovariectomized animals treated subcutaneously with PTH(1-34) at a dose of 10 μg/kg/day for forty-five days followed by oral administration of only compound 1a at a dose of 0.3 mg/kg/day for forty-five days; and bilaterally ovariectomized animals treated with 17α-ethynyl estradiol administered orally at a dose of 0.1 mg/kg/day.

[2] = system: osteopenic ovariectomized rats; assay: Compression testing of L-6 vertebra; conditions: OVX rats; for vertebral strength (Su) and toughness of L-6 vertebra (in words): continuous treatment (PTH 90 days); for Vert E (Young's modulus) / Vert u (toughness) / Vert σu (vertebral strength): lumbar vertebra in compression, mean ± SEM
Method: Bone strength of L-6 vertebrae was measured after the posterior processes were removed and the ends of the centrum made parallel using a diamond wafering saw (Buehler Isomet, Evanston, Ill.). Ultimate stress (σu) Young's modulus (E), and toughness (u) for each vertebra was measured in compression at a load rate of 50 N/sec using the MTS machine. The compressive load was applied through a pivoting platen to correct for nonparallel alignment of the faces of the vertebral body (Turner and Burr, 1993).
Specimens were tested in saline solution at 37° C. Ultimate stress was calculated as the maximum load divided by the gross cross-sectional area πAB/4, where A and B are the vertebral widths in the anterior-posterior and medial lateral directions. Young's modulus was calculated by multiplying stiffness times 4T/πAB, where T is the specimen thickness. Toughness was calculated as the area under the load-displacement curve divided by πABT/4.
as §1

osteopenic rats = assay: Micro-CT of distal femur metaphysis; conditions: continuous treatment, 1a 0.01-1 mg/kg, 17α-ethynyl estradiol 0.1 mg/kg, PTH (1-34), 1a 0.3 mg/kg with PTH (1-34), FIG. 2
Method: The metaphysis of proximal tibiae were scanned longitudinally from baseline, using a 960A pQCT loaded with Dichte software version 5.2 (Norland/Stratec, Ft. Atkinson, Wis.), using the technique described by Sato et al., —1995, JPET 272:1252-1259; Sato 1995, Bone 17:157S-162S). Volumetric bone mineral density (BMD, mg/cm3), cross-sectional area (X-Area), voxel number, and mineral content (BMC, mg) were quantitated for the whole cross-section of the metaphysis. Sites of excised bones were analyzed at higher resolution, using a micro-CT (Stratec). Specifically, distal femora (below the condyles, see Sato et al. 1995) and L-3 vertebra (mid-cross section, Helterbrand et al., 1997, Bone 21:401-409) were analyzed using voxel dimensions of 50 ×50×1000 μm and 70×70×1000 μm, respectively.
In a second study, virgin Sprague-Dawley rats were bilaterally ovariectomized (except for the sham-operated group), the ovariectomized animals randomized, and allowed to lose bone for one month prior to treatment in the manner described above. […]

[3] = 3 months: PTH (1-34) 10 μg/kg/day s.c., 1a 0.3 mg/kg/day oral + PTH, EE2 0.1 mg/kg/day oral
[4] = PTH (1-34) 10 μg/kg/day s.c. 45 days, then vehicle or 1a 0.3 mg/kg/day oral 45 days
[5] = Cmpd. 1a 0.01 mg/kg/day oral, 3 months
[6] = Cmpd. 1a 0.3 mg/kg/day oral, 3 months
[7] = Cmpd. 1a 1 mg/kg/day oral, 3 months

PTH: N-terminal 1-34 fragment of human parathyroid hormone, hPTH(1-34, Sequence ID No. 3); PTH/vehicle = 45 days PTH then vehicle
ultimate load for the femora neck (in words) [1]: higher than OVX and Sham
Neck Fu (ultimate force) [1, 3]: 148 ± 2.6^s,o
Neck Fu (ultimate force) [1, 4]: 116 ± 6.2
vertebral strength (Su) of L-6 vertebra (in words) ([2]; PTH (1-34) discontinued after 45 days or switched to compound 1a): lowered Su to below Sham
vertebral strength (Su) and toughness of L-6 vertebra (in words) [2]: increased Su and toughness to above OVX and Sham levels
Vert E (Young's modulus) [2, 3]: 686 ± 77
Vert u (toughness) [2, 3]: 3.68 ± 1.10^s,o
Vert σu (vertebral strength) [2, 3]: 45.5 ± 2.4^s,o
Vert E (Young's modulus) [2, 4]: 524 ± 109
Vert u (toughness) [2, 4]: 1.16 ± 0.22
Vert σu (vertebral strength) [2, 4]: 24.2 ± 2.5^s
BMD of distal femur metaphysis (micro-CT) (osteopenic rats): increased BMD was observed to levels significantly beyond OVX, Sham, and baseline levels

C#C[C@]1(O)CC[C@H]2[C@@H]3CCc4cc(O)ccc4[C@H]3CC[C@@]21C [EE2, 17α-ethynyl estradiol]
Neck Fu (ultimate force) [1, 3]: 110 ± 6.1
Vert E (Young's modulus) [2, 3]: 579 ± 94
Vert u (toughness) [2, 3]: 1.44 ± 0.37
Vert σu (vertebral strength) [2, 3]: 28.1 ± 2.6^o
BMD of distal femur metaphysis (micro-CT) (osteopenic rats): prevented further bone loss

COc1ccc(-c2sc3cc(O)ccc3c2Oc2ccc(OCCN3CCCCC3)cc2)cc1 [Compound 1a, 6-hydroxy-2-(4-methoxyphenyl)-3-[4-(2-piperidin-1-ylethoxy)phenoxy]-benzo[b]thiophene]
Neck Fu (ultimate force) [1, 5]: 112 ± 4.7
Neck Fu (ultimate force) [1, 6]: 114 ± 5.1
Neck Fu (ultimate force) [1, 7]: 117 ± 3.1
vertebral strength (Su) and toughness of L-6 vertebra (in words) [2]: improved vertebral strength (Su) and toughness in a dose-dependent manner to above OVX
Vert E (Young's modulus) [2, 5]: 540 ± 72
Vert u (toughness) [2, 5]: 1.72 ± 0.44
Vert σu (vertebral strength) [2, 5]: 24.8 ± 2.3^s
Vert E (Young's modulus) [2, 6]: 436 ± 76
Vert u (toughness) [2, 6]: 1.97 ± 0.37
Vert σu (vertebral strength) [2, 6]: 28.3 ± 1.9^o
Vert E (Young's modulus) [2, 7]: 384 ± 30
Vert u (toughness) [2, 7]: 2.30 ± 0.29^o
Vert σu (vertebral strength) [2, 7]: 27.8 ± 1.5^o
BMD of distal femur metaphysis (micro-CT) (osteopenic rats): prevented further bone loss
